Results taken from patent publication US6706663B2, “Herbicidal 3-heterocyclic substituted benzisothiazole and benzisoxazole compounds” (Wyeth, priority 2000, dated 2004).

Legend:
ORYSAT (Rice, Tebonnet) = test: Preemergence herbicidal evaluation; assay type: in vivo, Oryza sativa, (L.) Tebonnet; details: preemergence, rated 4-5 weeks after treatment
[1] = system: CYPSE (Cyperus serotinus); test: Flooded paddy, preemergence weed control; assay type: in vivo, Rottb.; details: rated 3-4 weeks after treatment, 0-9 rating scale
Method in brief: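 Herbicidal effect was scored visually on a 0–9 scale against an untreated control 3–4 weeks after treatment. Compounds were applied preemergence as 50/50 v/v aqueous/acetone mixtures into flood water (1.5–3 cm deep over silt loam), at roughly 0.0080 to 0.1250 kg/ha active ingredient.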

CYPIR (Cyperus iria) = test: Flooded paddy, preemergence weed control; assay type: in vivo; details: rated 3-4 weeks after treatment, 0-9 rating scale
Method in brief: (§1)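 Flooded silt loam pots, seeds in upper 0.5 cm, water held 1.5–3 cm deep; greenhouse; visual 0-9 score vs control.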

ZEAMX (Corn, Field) [2] = test: Preemergence herbicidal evaluation; assay type: in vivo, Zea mays, L.; details: preemergence, rated 4-5 weeks after treatment
[3] = system: ABUTH (Abutilon theophrasti); test: Postemergence herbicidal evaluation; assay type: in vivo, Medic.
Method in brief: (§2)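 Seedlings grown for about two weeks were sprayed postemergence and then kept under standard greenhouse care. Injury was rated visually 4–5 weeks after treatment on a 0–9 scale against untreated controls, and ratings from repeat tests were averaged.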

[4] = system: SAGPY (Sagittaria pygmaea); test: Flooded paddy, preemergence weed control; assay type: in vivo, L.; details: rated 3-4 weeks after treatment, 0-9 rating scale
Method in brief: as §1

[5] = system: GLXMAW (Soybean, Williams); test: Postemergence herbicidal evaluation; assay type: in vivo, Glycine max, (L.) Merr. cv Williams
Method in brief: as §2

[6] = system: AMBEL (Ambrosia artemisifolia); test: Preemergence herbicidal evaluation; assay type: in vivo, L.; details: preemergence, rated 4-5 weeks after treatment
Method in brief: (§3)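 Each species was sown separately in potting soil over roughly one inch of soil, and the surface sprayed with compound dissolved in aqueous acetone. Assessment used a 0–9 visual scale against a control after four to five weeks.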

[7] = system: CHEAL (Chenopodium album); test: Preemergence herbicidal evaluation; assay type: in vivo, L.; details: preemergence, rated 4-5 weeks after treatment
Method in brief: as §3

[8] = system: CASOB (Cassia obtusifolia); test: Preemergence herbicidal evaluation; assay type: in vivo, L.; details: preemergence, rated 4-5 weeks after treatment
Method in brief: as §3

[9] = system: ECHORC (Echinochloa oryzoides); test: Flooded paddy, preemergence weed control; assay type: in vivo, Echinochloa oryzoides (Ard.) Fritsch.; details: rated 3-4 weeks after treatment, 0-9 rating scale
Method in brief: as §1

ZEAMX (Corn, Field) [10] = test: Postemergence herbicidal evaluation; assay type: in vivo, Zea mays, L.
Method in brief: as §2

[11] = system: IPOHE (Ipomoea hederacea); test: Postemergence herbicidal evaluation; assay type: in vivo, (L.) Jacq.
Method in brief: as §2

GALAP (Galium aparine) [12] = test: Postemergence herbicidal evaluation; assay type: in vivo
Method in brief: as §2

[13] = system: GLXMAW (Soybean, Williams); test: Preemergence herbicidal evaluation; assay type: in vivo, Glycine max, (L.) Merr. cv Williams; details: preemergence, rated 4-5 weeks after treatment
[14] = system: AMBEL (Ambrosia artemisifolia); test: Postemergence herbicidal evaluation; assay type: in vivo, L.
Method in brief: as §2

[15] = system: CHEAL (Chenopodium album); test: Postemergence herbicidal evaluation; assay type: in vivo, L.
Method in brief: as §2

[16] = system: CASOB (Cassia obtusifolia); test: Postemergence herbicidal evaluation; assay type: in vivo, L.
Method in brief: as §2

[17] = system: TRZAWR (Wheat, Winter, cv Riband); test: Preemergence herbicidal evaluation; assay type: in vivo, Triticum aestivum; details: preemergence, rated 4-5 weeks after treatment
Method in brief: as §3

[18] = system: IPOHE (Ipomoea hederacea); test: Preemergence herbicidal evaluation; assay type: in vivo, (L.) Jacq.; details: preemergence, rated 4-5 weeks after treatment
[19] = system: ECHCG (Echinochloa crus-galli); test: Postemergence herbicidal evaluation; assay type: in vivo, (L.) Beau
Method in brief: as §2

GALAP (Galium aparine) [20] = test: Preemergence herbicidal evaluation; assay type: in vivo; details: preemergence, rated 4-5 weeks after treatment
Method in brief: as §3

CN(C(=O)c1nsc2ccc(-n3c(=O)cc(C(F)(F)F)n(C)c3=O)cc12)c1ccc(Cl)cc1 [Compound 18, 1,2-benzisothiazole-3-carboxanilide, 4′-chloro-5-[3,6-dihydro-3-methyl-2,6-dioxo-4-(trifluoromethyl)-1(2H)-pyrimidinyl]-N-methyl-]
5.5: Postemergence herbicidal rating, ZEAMX (ZEAMX (Corn, Field) [10]; rate 0.1250 kg/ha)
8.0: ORYSAT preemergence herbicidal rating (ORYSAT (Rice, Tebonnet); Rate 0.2500 kg/ha) | ZEAMX preemergence herbicidal rating (ZEAMX (Corn, Field) [2]; Rate 0.1250 kg/ha) | ZEAMX preemergence herbicidal rating (ZEAMX (Corn, Field) [2]; Rate 0.2500 kg/ha) | Postemergence herbicidal rating, GLXMAW ([5]; rate 0.0620 kg/ha) | Postemergence herbicidal rating, GLXMAW ([5]; rate 0.1250 kg/ha) | TRZAWR preemergence herbicidal rating ([17]; Rate 0.2500 kg/ha)
7.0: ZEAMX preemergence herbicidal rating (ZEAMX (Corn, Field) [2]; Rate 0.0620 kg/ha) | AMBEL preemergence herbicidal rating ([6]; Rate 0.0620 kg/ha) | Postemergence herbicidal rating, ZEAMX (ZEAMX (Corn, Field) [10]; rate 0.2500 kg/ha) | Postemergence herbicidal rating, CHEAL ([15]; rate 0.0320 kg/ha) | Postemergence herbicidal rating, CHEAL ([15]; rate 0.0620 kg/ha) | Postemergence herbicidal rating, CHEAL ([15]; rate 0.1250 kg/ha)
7.5: herbicidal rating, CYPIR (CYPIR (Cyperus iria); rate 0.1250 kg/ha)
2.0: Postemergence herbicidal rating, GALAP (GALAP (Galium aparine) [12]; rate 0.0320 kg/ha) | Postemergence herbicidal rating, AMBEL ([14]; rate 0.0320 kg/ha) | Postemergence herbicidal rating, CASOB ([16]; rate 0.1250 kg/ha)
4.0: herbicidal rating, CYPSE ([1]; rate 0.0320 kg/ha) | herbicidal rating, CYPSE ([1]; rate 0.1250 kg/ha) | Postemergence herbicidal rating, GALAP (GALAP (Galium aparine) [12]; rate 0.0620 kg/ha) | GLXMAW preemergence herbicidal rating ([13]; Rate 0.1250 kg/ha) | TRZAWR preemergence herbicidal rating ([17]; Rate 0.1250 kg/ha)
5.0: ORYSAT preemergence herbicidal rating (ORYSAT (Rice, Tebonnet); Rate 0.1250 kg/ha) | herbicidal rating, SAGPY ([4]; rate 0.1250 kg/ha) | Postemergence herbicidal rating, ZEAMX (ZEAMX (Corn, Field) [10]; rate 0.0320 kg/ha) | Postemergence herbicidal rating, ZEAMX (ZEAMX (Corn, Field) [10]; rate 0.0620 kg/ha) | GLXMAW preemergence herbicidal rating ([13]; Rate 0.2500 kg/ha) | Postemergence herbicidal rating, ECHCG ([19]; rate 0.2500 kg/ha)
0.0: ORYSAT preemergence herbicidal rating (ORYSAT (Rice, Tebonnet); Rate 0.0620 kg/ha) | herbicidal rating, CYPIR (CYPIR (Cyperus iria); rate 0.0080 kg/ha) | herbicidal rating, SAGPY ([4]; rate 0.0080 kg/ha) | CASOB preemergence herbicidal rating ([8]; Rate 0.0620 kg/ha) | herbicidal rating, ECHORC ([9]; rate 0.0080 kg/ha) | GLXMAW preemergence herbicidal rating ([13]; Rate 0.0620 kg/ha) | Postemergence herbicidal rating, CASOB ([16]; rate 0.0320 kg/ha) | TRZAWR preemergence herbicidal rating ([17]; Rate 0.0620 kg/ha) | Postemergence herbicidal rating, ECHCG ([19]; rate 0.0320 kg/ha) | Postemergence herbicidal rating, ECHCG ([19]; rate 0.0620 kg/ha) | Postemergence herbicidal rating, ECHCG ([19]; rate 0.1250 kg/ha) | GALAP preemergence herbicidal rating (GALAP (Galium aparine) [20]; Rate 0.0620 kg/ha) | GALAP preemergence herbicidal rating (GALAP (Galium aparine) [20]; Rate 0.1250 kg/ha)
3.0: IPOHE preemergence herbicidal rating ([18]; Rate 0.0620 kg/ha)
8.5: Postemergence herbicidal rating, GLXMAW ([5]; rate 0.2500 kg/ha)
9.0: Postemergence herbicidal rating, ABUTH ([3]; rate 0.0320 kg/ha) | Postemergence herbicidal rating, ABUTH ([3]; rate 0.0620 kg/ha) | Postemergence herbicidal rating, ABUTH ([3]; rate 0.1250 kg/ha) | Postemergence herbicidal rating, ABUTH ([3]; rate 0.2500 kg/ha) | AMBEL preemergence herbicidal rating ([6]; Rate 0.1250 kg/ha) | AMBEL preemergence herbicidal rating ([6]; Rate 0.2500 kg/ha) | CHEAL preemergence herbicidal rating ([7]; Rate 0.0620 kg/ha) | CHEAL preemergence herbicidal rating ([7]; Rate 0.1250 kg/ha) | CHEAL preemergence herbicidal rating ([7]; Rate 0.2500 kg/ha) | herbicidal rating, ECHORC ([9]; rate 0.1250 kg/ha) | Postemergence herbicidal rating, IPOHE ([11]; rate 0.0320 kg/ha) | Postemergence herbicidal rating, IPOHE ([11]; rate 0.0620 kg/ha) | Postemergence herbicidal rating, IPOHE ([11]; rate 0.1250 kg/ha) | Postemergence herbicidal rating, IPOHE ([11]; rate 0.2500 kg/ha) | Postemergence herbicidal rating, GALAP (GALAP (Galium aparine) [12]; rate 0.2500 kg/ha) | Postemergence herbicidal rating, AMBEL ([14]; rate 0.0620 kg/ha) | Postemergence herbicidal rating, AMBEL ([14]; rate 0.1250 kg/ha) | Postemergence herbicidal rating, AMBEL ([14]; rate 0.2500 kg/ha) | Postemergence herbicidal rating, CHEAL ([15]; rate 0.2500 kg/ha) | IPOHE preemergence herbicidal rating ([18]; Rate 0.1250 kg/ha) | IPOHE preemergence herbicidal rating ([18]; Rate 0.2500 kg/ha) | GALAP preemergence herbicidal rating (GALAP (Galium aparine) [20]; Rate 0.2500 kg/ha)
6.5: herbicidal rating, CYPIR (CYPIR (Cyperus iria); rate 0.0320 kg/ha)
6.0: Postemergence herbicidal rating, GLXMAW ([5]; rate 0.0320 kg/ha) | herbicidal rating, ECHORC ([9]; rate 0.0320 kg/ha) | Postemergence herbicidal rating, GALAP (GALAP (Galium aparine) [12]; rate 0.1250 kg/ha) | Postemergence herbicidal rating, CASOB ([16]; rate 0.2500 kg/ha)
1.0: CASOB preemergence herbicidal rating ([8]; Rate 0.1250 kg/ha) | CASOB preemergence herbicidal rating ([8]; Rate 0.2500 kg/ha) | Postemergence herbicidal rating, CASOB ([16]; rate 0.0620 kg/ha)
1.5: herbicidal rating, SAGPY ([4]; rate 0.0320 kg/ha)
